Biological target: Recombinant human 17β-HSD13 (Homo sapiens (Human), UniProt Q7Z5P4)
Experiment: 17β-HSD13 rapid-fire mass spectrometry assay (RF/MS assay)
Assay type: biochemical
Settings: HSD17B13 80 nM, LTB4 10 μM, NAD+ 0.5 mM, RT 3 h, RF/MS readout
Procedure: 17β-HSD13 rapid-fire mass spectrometry assay (RF/MS assay). Recombinant human 17β-HSD13 was expressed and purified from sf9 cells at Charles River Labs (Saffron Walden, UK). […] The assays were quenched by adding 20 μL of 0.15% aqueous formic acid and the plates were frozen at −80° C. RF/MS analysis was performed at PureHoney Technologies (Billerica, MA) on a RapidFire RF300 system (Agilent Technologies, Inc.) coupled to an API 4000 triple quadrupole mass spectrometer (Sciex) equipped with Agilent RapidFire cartridge type A (C4). The mobile phase was 0.09% formic acid and 0.01% trifluoracetic acid in water (Buffer A) and 0.09% formic acid and 0.01% trifluoracetic acid in 80% aqueous acetonitrile (Buffer B). The RapidFire method conditions were the following: 250 ms aspirate, 3000 ms load/desalt, 4000 ms elute, and 500 ms re-equilibrate. RF-MS/MS was performed in negative polarity (−4500 V), the source temperature was 650° C., and gas 1 and gas 2 settings for nitrogen were set to 50. The curtain gas and collision gas were also nitrogen and were set to 20 and 12, respectively.
Data Analysis. 17β-HSD13 enzyme activity was measured as percent conversion of extracted ion counts and normalized to high and low controls to determine percent residual activity at various concentrations of test compounds. Data were fitted to normalized activity (variable slope) versus concentration fit in GraphPad Prism 7 to determine IC50. All experiments were run in duplicates.

Recombinant human 17β-HSD13, sequence (Q7Z5P4 20-300): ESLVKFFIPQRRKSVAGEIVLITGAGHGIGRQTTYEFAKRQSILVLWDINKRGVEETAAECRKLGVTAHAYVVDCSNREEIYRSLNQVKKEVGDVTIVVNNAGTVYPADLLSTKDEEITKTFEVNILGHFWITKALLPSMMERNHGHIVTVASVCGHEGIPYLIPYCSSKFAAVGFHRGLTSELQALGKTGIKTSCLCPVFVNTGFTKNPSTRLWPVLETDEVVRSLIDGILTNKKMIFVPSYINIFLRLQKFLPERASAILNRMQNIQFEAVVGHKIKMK

Row | IC50 [nM] | Structure (SMILES)
1 | 100 to 1000 | O=c1c2c(nc(-c3ccc(F)cc3C3CC3)n1CCn1ccc(C3CC3)n1)sc1c(O)cccc12 [Example 72]
2 | 1000 to 10000 | Cc1cc(Cn2c(-c3ccc(F)cc3C3CC3)nc3sc4c(O)cccc4c3c2=O)on1 [Example 73]
3 | < 100 | Cc1ncc(Cn2c(-c3ccc(F)cc3C3CC3)nc3sc4c(O)cccc4c3c2=O)o1 [Example 75]
4 | < 100 | O=c1c2c(nc(-c3ccc(F)cc3C3CC3)n1Cc1cc(C(F)(F)F)no1)sc1c(O)cccc12 [Example 77]
5 | 100 to 1000 | O=c1c2c(nc(-c3ccc(F)cc3C3CC3)n1CCn1cnnc1)sc1c(O)cccc12 [Example 78]
6 | < 100 | O=c1c2c(nc(-c3ccc(F)cc3C3CC3)n1CCn1nccn1)sc1c(O)cccc12 [Example 79]
7 | < 100 | O=c1c2c(nc(-c3ccc(F)cc3C3CC3)n1CCn1ccnn1)sc1c(O)cccc12 [Example 80]
8 | < 100 | O=c1c2c(nc(-c3ccc(F)cc3C3CC3)n1CCn1cnnn1)sc1c(O)cccc12 [Example 81]
9 | < 100 | CC(C)Oc1ccc(-c2nc3sc4c(O)cccc4c3c(=O)n2Cc2ccno2)c(C2CC2)c1 [Example 82]
10 | < 100 | CC(C)Oc1ccc(-c2nc3sc4c(O)cccc4c3c(=O)n2Cc2cnco2)c(C2CC2)c1 [Example 83]
11 | < 100 | O=c1c2c(nc(-c3ccc(F)cc3C3CC3)n1CCCc1nccs1)sc1c(O)cccc12 [Example 84]
12 | < 100 | O=c1c2c(nc(-c3ccc(F)cc3C3CC3)n1CCCc1nc3ccccc3s1)sc1c(O)cccc12 [Example 85]
13 | < 100 | O=c1c2c(nc(-c3ccc(F)cc3C3CC3)n1CCCc1nc3ccccc3o1)sc1c(O)cccc12 [Example 86]
14 | 1000 to 10000 | COc1ccc(-c2nc3sc4c(OC(=O)C(C)C)cccc4c3c(=O)n2Cc2cnco2)c(C2CC2)c1 [Example 88]
15 | > 10000 | COc1ccc(-c2nc3sc4c(OC(=O)C(C)(C)C)cccc4c3c(=O)n2Cc2cnco2)c(C2CC2)c1 [Example 89]
16 | < 100 | COc1ccc(-c2nc3sc4c(O)ccc(Cl)c4c3c(=O)n2Cc2cnco2)c(C2CC2)c1 [Example 91]
